Assay results from patent US11415579B2, “Assay for measuring a rate of reaction between a target and a ligand candidate” (Imperial College Innovations Ltd., priority 2016, dated 2022).

Tests used:
[1] = biological target: T1, Cdk2(H71C) (C177A) (Homo sapiens, UniProt P24941, C177A/H71C); assay: Kinetic thiol consumption assay with Cdk2 mutant H71C; format: binding; set-up: key to Rate enhancement, Cdk2 H71C: rate constant with Cdk2 ÷ rate constant with model thiol (fold); conditions: additional mutation C177A; for Rate constant with Cdk2 H71C: Protein: Cdk2, cysteine position H71C, in h^-1
T1 construct: poly-histidine; made in house; host or cells: E. coli
Outline: (§1)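 Thiol consumption was monitored kinetically using 5 μM Cdk2 (C177A plus one introduced cysteine) in degassed phosphate buffer at pH 8 with TCEP beads. Plates were kept 1 h at room temperature before fluorescence reading, and rate constants came from exponential decay fitting.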

[2] = biological target: T2, Cdk2(C177A, F80C) (Homo sapiens, UniProt P24941, C177A/F80C); assay: Kinetic thiol consumption assay with Cdk2 mutant F80C, incl. kobs versus concentration (Kd, k2); format: binding; set-up: key to Rate enhancement, Cdk2 F80C: Cdk2 rate constant divided by model-thiol rate constant; conditions: additional mutation C177A; for Rate constant with Cdk2 F80C: Protein: Cdk2, cysteine position F80C, in h^-1
T2 construct: poly-histidine; made in house; host or cells: E. coli
Outline: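 His-tagged Cdk2(C177A/F80C) from E. coli or model thiol, 5 μM in degassed phosphate buffer pH 8 with TCEP beads, reacted with acrylamide ligands; fluorescence (ex/em 380/470 nm) normalized to DMSO control and fitted to first-order decay for kobs. Kd and k2 obtained from hyperbolic fit of kobs versus ligand concentration.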

[3] = biological target: T3, Cdk2(R122C) (C177A) (Homo sapiens, UniProt P24941, C177A/R122C); assay: Kinetic thiol consumption assay with Cdk2 mutant R122C; format: binding; set-up: key to Rate enhancement, Cdk2 R122C: rate constant with Cdk2 ÷ rate constant with model thiol (fold); conditions: additional mutation C177A; for Rate constant with Cdk2 R122C: Protein: Cdk2, cysteine position R122C, in h-1
T3 construct: poly-histidine; made in house; host or cells: E. coli
Outline: as §1

[4] = biological target: T4, Cdk2(T182C) (C177A) (Homo sapiens, UniProt P24941, C177A/T182C); assay: Kinetic thiol consumption assay with Cdk2 mutant T182C; format: binding; set-up: key to Rate enhancement, Cdk2 T182C: rate constant with Cdk2 ÷ rate constant with model thiol (fold); conditions: additional mutation C177A; for Rate constant with Cdk2 T182C: Protein: Cdk2, cysteine position T182C, in h^-1
T4 construct: poly-histidine; made in house; host or cells: E. coli
Outline: as §1

[5] = biological target: T5, human cyclin-dependent kinase 2 (Cdk2) (Homo sapiens, UniProt P24941); assay: Kinetic thiol consumption assay with wild type Cdk2 (C177); format: binding; set-up: key to Rate enhancement, Cdk2 WT: k(Cdk2) divided by k(model thiol); Rate constant with Cdk2 (k(Cdk2)): unit not given here; conditions: for Rate constant with Cdk2 (k(Cdk2)): 500 μM ligand, 5 μM thiol, phosphate buffer pH 8; for Rate enhancement, Cdk2 WT: no additional mutations; for Rate constant with Cdk2 WT: Protein: Cdk2, cysteine position WT, in h^-1; for k(Cdk2)/k(Cdk2_mut) rate enhancement: model thiol Cdk2[C177A, F80C, K278C]; for k(Cdk2)/k(GSH) rate enhancement: model thiol glutathione
T5 construct: poly-histidine; made in house; host or cells: E. coli
Outline: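 Rate constants came from first-order exponential decay fits of normalized fluorescence against time, with thiol (5 μM) in degassed pH 8 phosphate buffer containing 2% v/v TCEP beads and reads after 1 h at room temperature.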

[6] = biological target: T6, Cdk2[C177A, F80C, K278C] (Homo sapiens, UniProt P24941, C177A/F80C/K278C); assay: Kinetic thiol consumption assay with mutant Cdk2 as model thiol; format: binding; set-up: unit not given here; conditions: 500 μM ligand, 5 μM thiol, phosphate buffer pH 8
T6 construct: poly-histidine; made in house; host or cells: E. coli
Outline: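 First-order rate constants were derived by exponential-decay fitting of DMSO/thiol-normalized fluorescence (380/470 nm) over time at room temperature. Thiol was 5 μM E. coli-expressed His-tagged Cdk2 mutant C177A/F80C/K278C in degassed pH 8 phosphate buffer containing 2% v/v TCEP beads.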

[7] = biological target: T7, Cdk2(S181C) (C177A) (Homo sapiens, UniProt P24941, C177A/S181C); assay: Kinetic thiol consumption assay with Cdk2 mutant S181C; format: binding; set-up: key to Rate enhancement, Cdk2 S181C: rate constant with Cdk2 ÷ rate constant with model thiol (fold); conditions: additional mutation C177A; for Rate constant with Cdk2 S181C: Protein: Cdk2, cysteine position S181C, in h^-1
T7 construct: poly-histidine; made in house; host or cells: E. coli
Outline: as §1

[8] = biological target: T8, Cdk2(S276C) (C177A) (Homo sapiens, UniProt P24941, C177A/S276C); assay: Kinetic thiol consumption assay with Cdk2 mutant S276C; format: binding; set-up: key to Rate enhancement, Cdk2 S276C: rate constant with Cdk2 ÷ rate constant with model thiol (fold); conditions: additional mutation C177A; for Rate constant with Cdk2 S276C: Protein: Cdk2, cysteine position S276C, in h^-1
T8 construct: poly-histidine; made in house; host or cells: E. coli
Outline: as §1

[9] = biological target: T9, Cdk2(N272C) (C177A) (Homo sapiens, UniProt P24941, C177A/N272C); assay: Kinetic thiol consumption assay with Cdk2 mutant N272C; format: binding; set-up: key to Rate enhancement, Cdk2 N272: rate constant with Cdk2 ÷ rate constant with model thiol (fold); conditions: for Rate enhancement, Cdk2 N272: Cdk2 N272, additional mutation C177A; for Rate constant with Cdk2 N272C: Protein: Cdk2, cysteine position N272C, additional mutation C177A, in h^-1
T9 construct: poly-histidine; made in house; host or cells: E. coli
Outline: as §1

[10] = Kinetic thiol consumption assay with model thiol glutathione; format: physicochemical; set-up: Rate constant with glutathione (k(GSH)): unit not given here; conditions: for Rate constant with glutathione (k(GSH)): 500 μM ligand, 5 μM thiol, phosphate buffer pH 8; for Rate constant with Glutathione: Protein: Glutathione, cysteine position NA, in h-1
Outline: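 First, 5 μM glutathione in degassed phosphate buffer (pH 8) receives immobilized TCEP beads (2% v/v). Then acrylamide is added and plates incubate 1 h at room temperature. Finally, fluorescence (380/470 nm) is normalized and fitted to first-order decay for rate constants.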

SMILES | Rate enhancement, Cdk2 H71C [1] | Rate constant with Cdk2 H71C [1] | Rate enhancement, Cdk2 F80C [2] | Rate enhancement, Cdk2 R122C [3] | Rate constant with Cdk2 R122C [3] | Rate enhancement, Cdk2 T182C [4] | Rate constant with Cdk2 T182C [4] | Rate constant with Cdk2 (k(Cdk2)) [5] | Rate enhancement, Cdk2 WT [5] | Rate constant with Cdk2 WT [5] | k(Cdk2)/k(Cdk2_mut) rate enhancement [5] | k(Cdk2)/k(GSH) rate enhancement [5] | Rate constant with Cdk2[C177A, F80C, K278C] (k(Cdk2_mut)) [6] | Rate enhancement, Cdk2 S181C [7] | Rate enhancement, Cdk2 S276C [8] | Rate constant with Cdk2 S276C [8] | Rate enhancement, Cdk2 N272 [9] | Rate constant with Cdk2 N272C [9] | Rate constant with glutathione (k(GSH)) [10] | Rate constant with Glutathione [10] | also measured
C=CC(=O)Nc1sc2c(c1C(=O)NC1CC1)CCC2 [CA-155] | 1.102 | 0.2926 | 0 | 1.407 | 0.3736 | 2.615 | 0.6945 | 0.743 | 2.797 | 0.743 | 0.5342 | 2.774 | 1.391 | 0.7715 | 0.6924 | 0.1839 | 0.715 | 0.1899 | 0.2678 | 0.2656 | Rate constant with Cdk2 S181C [7]: 0.2049
C=CC(=O)NC1CC2CC1C1CCCC21 (centres unmarked) [CA-159] | 0.5333 | 0.003769 | 0 | 0.2488 | 0.001758 | 0.9382 | 0.00663 | 0.00232 | 0.5437 | 0.003842 | 1.79 | 0.5547 | 0.0013 | 0 | 0.1634 | 0.001155 | 0.2158 | 0.001525 | 0.00418 | 0.007067 | –
C=CC(=O)NC1(c2noc(C)n2)CCCCCC1 [CA-162] | 0.4092 | 0.02429 | 0.05133 | 0.1023 | 0.006071 | 6.607 | 0.3922 | 0.02529 | 0.5566 | 0.03304 | 14.75 | 0.9863 | 0.00171 | 0.1273 | 1.07 | 0.06352 | 0.3725 | 0.02211 | 0.02564 | 0.05936 | Rate constant with Cdk2 F80C [2]: 0.003047; Rate constant with Cdk2 S181C [7]: 0.007555
C=CC(=O)N1C(=O)CC(c2ccccc2)N(C(=O)C=C)c2ccccc21 (centres unmarked) [CA-165-1] | 0 | – | 0.661 | 0 | – | 0 | – | 0.3945 | 1.092 | 5.676 | 0.3473 | 0.8877 | 1.136 | 0 | 0 | – | 0 | – | 0.4444 | 5.198 | Rate constant with Cdk2 F80C [2]: 3.436
C=CC(=O)N(c1ccc2c(c1)OCCO2)C1CC1 [CA-167] | 0.1567 | 0.003628 | 0.289 | 0.1363 | 0.003155 | 2.016 | 0.04668 | 0.01101 | 0.4756 | 0.01101 | 4.177 | 1.091 | 0.00264 | 0.343 | 0.3514 | 0.008135 | 0.2702 | 0.006256 | 0.01009 | 0.02315 | Rate constant with Cdk2 F80C [2]: 0.00669; Rate constant with Cdk2 S181C [7]: 0.00794
